# From ChEMBL document CHEMBL2034876, “Diversity-Oriented Synthesis Yields a Novel Lead for the Treatment of Malaria” (ACS Med Chem Lett, 2012)
# Tested on: Plasmodium falciparum
# Assay: Antimalarial activity against asexual blood stage form of Plasmodium falciparum Dd2 infected in human erythrocytes after 72 hrs by DAPI staining
# Type: functional
# Conditions: Dd2, 72 h
row,SMILES,GI50 [µM]
1,C[C@@H]1CN([C@@H](C)CO)C(=O)c2cc(NC(=O)Nc3ccccc3)ccc2O[C@@H](C)CCCCO[C@H]1CN(C)Cc1ccccc1,1.1
2,COc1ccc(COCCN2C[C@@H](C)[C@H](CN(C)S(=O)(=O)c3ccc(F)cc3)OCCCC[C@H](C)Oc3ccc(NC(=O)Nc4ccccc4)cc3C2=O)cc1,0.055
3,C[C@@H]1CN([C@@H](C)CO)C(=O)c2cc(NC(=O)Nc3ccccc3)ccc2O[C@@H](C)CCCCO[C@H]1CN(C)S(=O)(=O)c1ccc(C(F)(F)F)cc1,0.877
4,C[C@@H]1CN([C@@H](C)CO)C(=O)c2cc(NC(=O)Nc3ccccc3)ccc2O[C@@H](C)CCCCO[C@H]1CN(C)S(=O)(=O)c1ccccc1F,1.1
5,C[C@@H]1CN(CCO)C(=O)c2cc(NC(=O)Nc3ccccc3)ccc2O[C@@H](C)CCCCO[C@H]1CN(C)S(=O)(=O)c1ccc(F)cc1,0.64
6,COCOC[C@H](C)N1C[C@@H](C)[C@H](CN(C)S(=O)(=O)c2ccc(F)cc2)OCCCC[C@H](C)Oc2ccc(NC(=O)Nc3ccccc3)cc2C1=O,0.0082
7,C[C@@H]1CN([C@@H](C)COC(=O)C(C)(C)C)C(=O)c2cc(NC(=O)Nc3ccccc3)ccc2O[C@@H](C)CCCCO[C@H]1CN(C)S(=O)(=O)c1ccc(F)cc1,0.0073
8,COCCOC(=O)N(C)C[C@@H]1OCCCC[C@H](C)Oc2ccc(NC(=O)Nc3ccccc3)cc2C(=O)N([C@@H](C)CO)C[C@H]1C,> 5
9,CNC[C@H](C)N1C[C@@H](C)[C@H](CN(C)S(=O)(=O)c2ccc(F)cc2)OCCCC[C@H](C)Oc2ccc(NC(=O)Nc3ccccc3)cc2C1=O,0.079
10,Cc1noc(C)c1NC(=O)Nc1ccc2c(c1)C(=O)N([C@@H](C)CO)C[C@@H](C)[C@H](CN(C)S(=O)(=O)c1ccc(F)cc1)OCCCC[C@H](C)O2,0.24
11,C[C@@H]1CN([C@@H](C)CO)C(=O)c2cc(NS(=O)(=O)c3ccccc3)ccc2O[C@@H](C)CCCCO[C@H]1CN(C)S(=O)(=O)c1ccc(F)cc1,2.4
12,C[C@@H]1CN([C@@H](C)CO)C(=O)c2cc(N(C)C)ccc2O[C@@H](C)CCCCO[C@H]1CN(C)S(=O)(=O)c1ccc(F)cc1,> 5
13,C[C@@H]1CN([C@@H](C)CO)C(=O)c2cc(N)ccc2O[C@@H](C)CCCCO[C@H]1CN(C)S(=O)(=O)c1ccc(F)cc1,0.99
14,C[C@@H]1CN([C@@H](C)CO)C(=O)c2cc(NC(=O)Nc3ccccc3)ccc2O[C@@H](C)CCCCO[C@H]1CN(C)Cc1ccc(F)cc1,4.3
15,C[C@@H]1CN([C@@H](C)CO)C(=O)c2cc(NC(=O)Nc3ccccc3)ccc2O[C@@H](C)CCCCO[C@H]1CN(C)C(=O)OC(C)(C)C,1.4
16,C[C@@H]1CN([C@@H](C)CN=[N+]=[N-])C(=O)c2cc(NC(=O)Nc3ccccc3)ccc2O[C@@H](C)CCCCO[C@H]1CN(C)S(=O)(=O)c1ccc(F)cc1,0.0032
17,C[C@@H]1CN([C@@H](C)COC(=O)c2ccccc2)C(=O)c2cc(NC(=O)Nc3ccccc3)ccc2O[C@@H](C)CCCCO[C@H]1CN(C)S(=O)(=O)c1ccc(F)cc1,0.015
18,C[C@@H]1CN([C@@H](C)CO)C(=O)c2cc(NC(=O)Nc3ccccc3)ccc2O[C@@H](C)CCCCO[C@H]1CN(C)S(=O)(=O)c1cccnc1,> 5
19,C[C@@H]1CN([C@@H](C)CN)C(=O)c2cc(NC(=O)Nc3ccccc3)ccc2O[C@@H](C)CCCCO[C@H]1CN(C)S(=O)(=O)c1ccc(F)cc1,0.37
20,C[C@@H]1CN([C@@H](C)CO)C(=O)c2cc(NC(=O)Nc3ccccc3)ccc2O[C@@H](C)CCCCO[C@H]1CN(C)C(=O)c1ccccc1,2.6
21,C[C@@H]1CN([C@@H](C)CO)C(=O)c2cc(NC(=O)Nc3ccccc3)ccc2O[C@@H](C)CCCCO[C@H]1CN(C)S(=O)(=O)c1ccccc1,0.35
22,COc1ccc(COC[C@@H](C)N2C[C@@H](C)[C@H](CN(C)S(=O)(=O)c3ccc(F)cc3)OCCCC[C@H](C)Oc3ccc(NC(=O)Nc4ccccc4)cc3C2=O)cc1,0.036
23,C[C@@H]1CN([C@@H](C)CO)C(=O)c2cc(Nc3nc4ccccc4o3)ccc2O[C@@H](C)CCCCO[C@H]1CN(C)S(=O)(=O)c1ccc(F)cc1,0.58
24,C[C@@H]1CN([C@@H](C)CO)C(=O)c2cc(NC(=O)Nc3ccccc3)ccc2O[C@@H](C)CCCCO[C@H]1CN(C)C(=O)Oc1ccccc1,> 5
25,CC(C)NC(=O)Nc1ccc2c(c1)C(=O)N([C@@H](C)CO)C[C@@H](C)[C@H](CN(C)S(=O)(=O)c1ccc(F)cc1)OCCCC[C@H](C)O2,0.4
26,COc1ccc(COC[C@H](C)N2C[C@@H](C)[C@H](CN(C)S(=O)(=O)c3ccc(F)cc3)OCCCC[C@H](C)Oc3ccc(NC(=O)Nc4ccccc4)cc3C2=O)cc1,0.00018
27,COc1ccc(S(=O)(=O)N(C)C[C@@H]2OCCCC[C@H](C)Oc3ccc(NC(=O)Nc4ccccc4)cc3C(=O)N([C@@H](C)CO)C[C@H]2C)cc1,0.16

# Tested on: not listed separately
# Assay: Aqueous solubility of the compound
# Type: physicochemical
# Conditions: water
row,SMILES,solubility [µM]
1,C[C@@H]1CN([C@@H](C)COC(=O)C(C)(C)C)C(=O)c2cc(NC(=O)Nc3ccccc3)ccc2O[C@@H](C)CCCCO[C@H]1CN(C)S(=O)(=O)c1ccc(F)cc1,< 0.5
2,C[C@@H]1CN([C@@H](C)CO)C(=O)c2cc(NC(=O)Nc3ccccc3)ccc2O[C@@H](C)CCCCO[C@H]1CN(C)C(=O)Oc1ccccc1,1.2

# Molecular target: T1, Dihydroorotate dehydrogenase (Plasmodium falciparum) (UniProt Q54A96)
# T1 sequence (whole entry): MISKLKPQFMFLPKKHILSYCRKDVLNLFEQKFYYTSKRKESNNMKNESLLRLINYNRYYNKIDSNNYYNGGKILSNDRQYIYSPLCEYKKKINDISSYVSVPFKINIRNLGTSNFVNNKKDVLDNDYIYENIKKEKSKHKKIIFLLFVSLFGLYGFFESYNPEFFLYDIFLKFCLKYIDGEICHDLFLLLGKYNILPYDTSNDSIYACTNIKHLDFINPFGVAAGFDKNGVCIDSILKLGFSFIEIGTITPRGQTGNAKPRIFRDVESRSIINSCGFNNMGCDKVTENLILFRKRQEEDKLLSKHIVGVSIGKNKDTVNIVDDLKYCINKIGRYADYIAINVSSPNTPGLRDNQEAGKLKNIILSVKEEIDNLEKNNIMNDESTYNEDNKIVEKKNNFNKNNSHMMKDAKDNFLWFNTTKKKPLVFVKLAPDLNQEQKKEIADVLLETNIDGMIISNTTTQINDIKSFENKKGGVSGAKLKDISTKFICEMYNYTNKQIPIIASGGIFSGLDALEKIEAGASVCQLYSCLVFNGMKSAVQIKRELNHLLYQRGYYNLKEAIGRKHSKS
# Assay: Inhibition of Plasmodium falciparum DHODH-mediated 2,6-dichloroindophenol reduction after 20 mins by spectrophotometry
# Conditions: not given
row,INH [µM],SMILES
1,> 30,C[C@@H]1CN([C@@H](C)CN(C)C)C(=O)c2cc(NC(=O)Nc3ccccc3)ccc2O[C@@H](C)CCCCO[C@H]1CN(C)S(=O)(=O)c1ccc(F)cc1

# Tested on: Plasmodium berghei
# Assay: Inhibition of Plasmodium berghei DHODH-mediated 2,6-dichloroindophenol reduction after 20 mins by spectrophotometry
# Conditions: not given
row,INH [µM],SMILES
1,> 30,C[C@@H]1CN([C@@H](C)CN(C)C)C(=O)c2cc(NC(=O)Nc3ccccc3)ccc2O[C@@H](C)CCCCO[C@H]1CN(C)S(=O)(=O)c1ccc(F)cc1

# Tested on: Plasmodium vivax
# Assay: Inhibition of Plasmodium vivax DHODH-mediated 2,6-dichloroindophenol reduction after 20 mins by spectrophotometry
# Conditions: not given
row,INH [µM],SMILES
1,> 30,C[C@@H]1CN([C@@H](C)CN(C)C)C(=O)c2cc(NC(=O)Nc3ccccc3)ccc2O[C@@H](C)CCCCO[C@H]1CN(C)S(=O)(=O)c1ccc(F)cc1

# Molecular target: Dihydroorotate dehydrogenase (quinone), mitochondrial (Homo sapiens) (UniProt Q02127)
# Sequence (Q02127 whole entry): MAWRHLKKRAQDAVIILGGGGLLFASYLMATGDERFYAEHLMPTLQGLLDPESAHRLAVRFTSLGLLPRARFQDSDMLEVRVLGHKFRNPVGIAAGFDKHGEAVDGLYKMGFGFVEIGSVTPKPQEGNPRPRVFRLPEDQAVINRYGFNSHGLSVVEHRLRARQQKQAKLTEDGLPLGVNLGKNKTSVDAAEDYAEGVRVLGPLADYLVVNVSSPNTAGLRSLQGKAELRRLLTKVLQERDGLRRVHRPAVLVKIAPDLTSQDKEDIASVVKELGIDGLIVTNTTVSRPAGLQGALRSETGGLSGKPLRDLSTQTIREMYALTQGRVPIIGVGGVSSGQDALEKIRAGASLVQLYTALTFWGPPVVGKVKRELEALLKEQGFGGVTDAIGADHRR
# Assay: Inhibition of human DHODH-mediated 2,6-dichloroindophenol reduction after 20 mins by spectrophotometry
# Conditions: not given
row,INH [µM],SMILES
1,> 30,C[C@@H]1CN([C@@H](C)CN(C)C)C(=O)c2cc(NC(=O)Nc3ccccc3)ccc2O[C@@H](C)CCCCO[C@H]1CN(C)S(=O)(=O)c1ccc(F)cc1
